Experimental data reported in PubChem BioAssay AID2060489 (Molecular Pharmacology Branch, DTP, NCI, 2025).

System: 922993-354-T-J3-PDC complex spheroids, viability
Experiment: Anticancer human tumor 922993-354-T-J3-PDC patient-derived endometrial carcinoma cell line growth inhibition [GQUAD]
Settings: for IC50: curve of first compound; for viability, T/C: stronger effect = lower value
Text: DNA G-quadruplex Stabilizer Agents in Combinations in Complex Spheroids
A high-throughput screen of multi-cell type tumor spheroids was designed to identify active combinations of DNA G-quadruplex stabilizer agents and targeted small molecules. Complex spheroids include a stromal component modeled by human endothelial cells (HUVEC) and fibroblasts modeled by human mesenchymal stem cells (MSCs). The concentration ranges selected for each drug and investigational agent were based upon clinically achievable concentrations if the clinical Cmax of the agent was known.
Compounds. The drugs and investigational agents: pidnarulex (CX-5461; NSC782164), APTO-253 (NSC789042), BRACO-19 (NSC847499), peposertib (NSC802822), ceralasertib (NSC780249), elimusertib (NSC800525), camonsertib (NSC841442), AZD-1390 (NSC803789), olaparib (NSC753686), talazoparib (NSC767125), ART-558 (NSC835418), sotorasib (NSC818433), MRTX-1133 (NSC836407), SN-38 (NSC673596), topotecan (NSC609699), etoposide (NSC141540), doxorubicin (NSC123127), gemcitabine (NSC613327), 5-fluorouracil (NSC19893), paclitaxel (NSC125973), vemurafenib (NSC761431), panobinostat (NSC761190), R-306465 (JNJ-16241199; NSC773264), adavosertib (NSC754352), TP-3654 (NSC805149), carboplatin (NSC241240), KSQ-4279 (NSC840948), and staurosporine (NSC755774) were obtained from the National Cancer Institute (NCI) Developmental Therapeutics Program Chemical Repository (34). The FDA-approved anticancer drug set is available from the NCI Developmental Therapeutics Program. […] The stock solutions were prepared in dimethyl sulfoxide (DMSO, Sigma-Aldrich, St. Louis, MO, cat. D2650) at 800-fold the tested concentration and stored at -70 degrees C prior to their use. All drugs and investigational agents were tested over a range starting from a high concentration at or near the clinical Cmax and decreasing in half-log increments. If the clinical Cmax for an agent had not been determined, the highest concentration tested was 10 microM.
2.3 Cell Culture. All cells were maintained in an incubator at 37 degrees C and 5% CO2 with 95% humidity. The PDC lines were cultured according to standard operating procedures established by the NCI PDMR. All PDCs were thawed and cultured in Matrigel-coated flasks prepared with a working solution of 1X Ham's F-12 nutrient mix, without supplementation (Invitrogen, cat. 11765054), 100 U/mL penicillin-streptomycin (Invitrogen, cat. 15140122), and 2.5% Matrigel (Corning Inc., cat. 354248) for the first three passages. The 857933-349-R-J2-PDC line was cultured in 6C/Colon 1B media, which includes advanced DMEM/F-12 (Thermo Fisher Scientific, cat. 12634028), 10 mM HEPES (Thermo Fisher Scientific, cat. 15630080), 1X GlutaMAX supplement (Thermo Fisher Scientific, cat. 35050061), 0.1 mg/mL primocin (InvivoGen, cat. ant-pm-2), 10% defined fetal bovine serum, heat inactivated (HyClone Laboratories Inc., cat. SH30070.03HI), 50% L-WRN conditioned media (ATCC, cat. CRL-3276), 1.25 mM N-Acetyl-L-cysteine (Sigma-Aldrich, cat. A9165), 10 mM nicotinamide (Sigma-Aldrich, cat. N0636), 1X B-27 supplement (Thermo Fisher Scientific, cat. 17504044), 1X N-2 supplement (Thermo Fisher Scientific, cat. 17502048), 10 microM Y-27632 dihydrochloride (Tocris Bioscience, cat. 1254), and 50 ng/mL human EGF recombinant protein (Thermo Fisher Scientific, cat. PHG0311). The 485176-168-R4-J1-PDC line was cultured in Panc media, which includes all 6C/Colon 1B media components plus 100 ng/mL human FGF-10 (Thermo Fisher Scientific, cat. 100-26), 500 nM SB-431542 (Selleckchem, cat. S1067), and gastrin (Tocris, cat. 3006).
[…]

[1] = second compound 0.0316 µM, first compound 0.0316 µM
[2] = second compound 0.0316 µM, first compound 0.1 µM
[3] = second compound 0.0316 µM, first compound 0.316 µM
[4] = second compound 0.0316 µM, first compound 1 µM
[5] = second compound 0.0316 µM, first compound 3.16 µM
[6] = second compound 0.0316 µM, first compound 10 µM
[7] = second compound 0.1 µM, first compound 0.0316 µM
[8] = second compound 0.1 µM, first compound 0.1 µM
[9] = second compound 0.1 µM, first compound 0.316 µM
[10] = second compound 0.1 µM, first compound 1 µM
[11] = second compound 0.1 µM, first compound 3.16 µM
[12] = second compound 0.1 µM, first compound 10 µM
[13] = second compound 0.316 µM, first compound 0.0316 µM
[14] = second compound 0.316 µM, first compound 0.1 µM
[15] = second compound 0.316 µM, first compound 0.316 µM
[16] = second compound 0.316 µM, first compound 1 µM
[17] = second compound 0.316 µM, first compound 3.16 µM
[18] = second compound 0.316 µM, first compound 10 µM
[19] = second compound 1 µM, first compound 0.0316 µM
[20] = second compound 1 µM, first compound 0.1 µM
[21] = second compound 1 µM, first compound 0.316 µM
[22] = second compound 1 µM, first compound 1 µM
[23] = second compound 1 µM, first compound 3.16 µM
[24] = second compound 1 µM, first compound 10 µM
[25] = second compound 3.16 µM, first compound 0.0316 µM
[26] = second compound 3.16 µM, first compound 0.1 µM
[27] = second compound 3.16 µM, first compound 0.316 µM
[28] = second compound 3.16 µM, first compound 1 µM
[29] = second compound 3.16 µM, first compound 3.16 µM
[30] = second compound 3.16 µM, first compound 10 µM
[31] = second compound 10 µM, first compound 0.0316 µM
[32] = second compound 10 µM, first compound 0.1 µM
[33] = second compound 10 µM, first compound 0.316 µM
[34] = second compound 10 µM, first compound 1 µM
[35] = second compound 10 µM, first compound 3.16 µM
[36] = second compound 10 µM, first compound 10 µM
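Further: spheroids exposed to compounds for seven days.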
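Wherever viability, T/C is given: 100% = DMSO vehicle control viability.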

SMILES: C#Cc1c(F)ccc2cc(O)cc(-c3ncc4c(N5CC6CCC(C5)N6)nc(OCC56CCCN5CC(F)C6)nc4c3F)c12 (centres undefined) + Cc1[nH]c2ccc(F)cc2c1-c1nc2c3cccnc3c3ncccc3c2[nH]1
- IC50 (second compound 0.0316 µM): > 10 µM
- IC50 (second compound 0.1 µM): > 10 µM
- IC50 (second compound 0.316 µM): > 10 µM
- IC50 (second compound 1 µM): > 10 µM
- IC50 (second compound 3.16 µM): > 10 µM
- IC50 (second compound 10 µM): > 10 µM
- viability, T/C [1]: 112%
- viability, T/C [2]: 93.3%
- viability, T/C [3]: 106%
- viability, T/C [4]: 98.2%
- viability, T/C [5]: 96%
- viability, T/C [6]: 80.7%
- viability, T/C [7]: 103%
- viability, T/C [8]: 98.4%
- viability, T/C [9]: 94.7%
- viability, T/C [10]: 107%
- viability, T/C [11]: 116%
- viability, T/C [12]: 110%
- viability, T/C [13]: 87%
- viability, T/C [14]: 88.8%
- viability, T/C [15]: 94%
- viability, T/C [16]: 99.2%
- viability, T/C [17]: 87.8%
- viability, T/C [18]: 124%
- viability, T/C [19]: 83.4%
- viability, T/C [20]: 108%
- viability, T/C [21]: 99.5%
- viability, T/C [22]: 120%
- viability, T/C [23]: 125%
- viability, T/C [24]: 114%
- viability, T/C [25]: 103%
- viability, T/C [26]: 87.6%
- viability, T/C [27]: 121%
- viability, T/C [28]: 107%
- viability, T/C [29]: 114%
- viability, T/C [30]: 113%
- viability, T/C [31]: 91.6%
- viability, T/C [32]: 104%
- viability, T/C [33]: 101%
- viability, T/C [34]: 110%
- viability, T/C [35]: 127%
- viability, T/C [36]: 113%

SMILES: O=c1[nH]cc(F)c(=O)[nH]1 + Cc1cnc(CNC(=O)c2c(=O)c3ccc(N4CCCN(C)CC4)nc3n3c2sc2ccccc23)cn1
- IC50 (second compound 0.0316 µM): > 10 µM
- IC50 (second compound 0.1 µM): > 10 µM
- IC50 (second compound 0.316 µM): < 0.0316 µM
- IC50 (second compound 1 µM): < 0.0316 µM
- IC50 (second compound 3.16 µM): < 0.0316 µM
- IC50 (second compound 10 µM): < 0.0316 µM
- viability, T/C [1]: 85.8%
- viability, T/C [2]: 69.8%
- viability, T/C [3]: 79.3%
- viability, T/C [4]: 96.3%
- viability, T/C [5]: 82.1%
- viability, T/C [6]: 57.4%
- viability, T/C [7]: 65.7%
- viability, T/C [8]: 49.3%
- viability, T/C [9]: 49.7%
- viability, T/C [10]: 61.5%
- viability, T/C [11]: 63.1%
- viability, T/C [12]: 60.1%
- viability, T/C [13]: 50.6%
- viability, T/C [14]: 47.1%
- viability, T/C [15]: 45.5%
- viability, T/C [16]: 42.8%
- viability, T/C [17]: 48.7%
- viability, T/C [18]: 49.3%
- viability, T/C [19]: 54.1%
- viability, T/C [20]: 38.2%
- viability, T/C [21]: 40.8%
- viability, T/C [22]: 42.6%
- viability, T/C [23]: 50%
- viability, T/C [24]: 44.9%
- viability, T/C [25]: 46%
- viability, T/C [26]: 50.6%
- viability, T/C [27]: 43.3%
- viability, T/C [28]: 53.6%
- viability, T/C [29]: 51.5%
- viability, T/C [30]: 46.4%
- viability, T/C [31]: 44.2%
- viability, T/C [32]: 44%
- viability, T/C [33]: 43.7%
- viability, T/C [34]: 37.2%
- viability, T/C [35]: 47.4%
- viability, T/C [36]: 46.1%
